# Measurements as given in paper PMC5362899, “Structural insights into the nucleotide base specificity of P2X receptors” (Scientific Reports, 2017).
# Numbering of substitutions follows the chain as printed.
# Experiments:
# Assay type in all cases: cell-based
# rat P2X4 rT186S mutant = target: T1, rat P2X4 rT186S mutant (Rattus norvegicus, UniProt P51577, T186S); experiment: Two-Electrode Voltage Clamp recording, rat P2X4 T186S mutant in Xenopus oocytes; settings: for nucleotide-evoked currents: GTP and UTP applied at 3 mM (Fig. S4); for EC50: oocytes held at −70 mV, n = 9, read-out: EC50 (evoked current, dose-response)
# T1 construct: rat P2X4 (NP_113782.1; WT and mutants) were transcribed from pGEMHE plasmids; expressed in transfected cells; host or cells: Xenopus laevis oocytes injected with cRNA from pGEMHE
# T1 sequence (P51577 1-388 T186S): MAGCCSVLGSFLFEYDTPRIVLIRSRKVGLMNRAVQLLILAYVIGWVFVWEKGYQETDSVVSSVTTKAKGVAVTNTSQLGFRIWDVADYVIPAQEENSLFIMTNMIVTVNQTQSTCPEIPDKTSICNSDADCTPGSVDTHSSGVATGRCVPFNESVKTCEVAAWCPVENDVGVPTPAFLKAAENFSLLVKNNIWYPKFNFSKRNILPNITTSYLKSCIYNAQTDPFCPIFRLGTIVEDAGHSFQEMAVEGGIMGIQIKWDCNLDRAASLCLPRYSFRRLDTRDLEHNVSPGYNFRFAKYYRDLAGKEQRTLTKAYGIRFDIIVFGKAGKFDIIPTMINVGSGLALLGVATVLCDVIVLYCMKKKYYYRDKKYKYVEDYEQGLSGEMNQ
# Excerpt: To further investigate the functional roles of the residues involved in the base recognition, T189 and R143, we performed an electrophysiological analysis with the rat P2X4, since its electrophysiological properties have been well established. We first assessed the functional role of T189 in zfP2X4 and introduced mutations at the equivalent residue of the rat P2X4 to create three mutants (^rT186A, ^rT186V and ^rT186S; the superscript “r” means rat P2X4). […] Therefore, we examined the ^rWT and the ^rT186S mutant.
# (§1) Figure 4 Current responses of ^rWT, ^rT186S, ^rH140A and ^rH140R evoked by ATP and CTP. (A,B) Representative currents of ^rWT evoked by ATP (1–300 μM) (A) and CTP (10–10,000 μM) (B). (C,D) Representative currents of the ^rT186S mutant evoked by ATP (1–300 μM) (C) and CTP (10–10,000 μM) (D). (E,F) Representative currents of the ^rH140A mutant evoked by ATP (1–300 μM) (E) and CTP (10–10,000 μM) (F). (G,H) Representative currents of the ^rH140R mutant evoked by ATP (1–300 μM) (G) and CTP (10–10,000 μM) (H). (I–K) Concentration-response curves evoked by ATP and CTP in the ^rWT and the ^rT186S mutant (I), in the ^rWT and the ^rH140A mutant (J) and in the ^rWT and the ^rH140R mutant (K). Symbols are defined in the figure, and bars depict means ± SEM (n = 7–9).
# (§2) The cRNAs encoding zebrafish P2X4 (NP_705939; WT) and rat P2X4 (NP_113782.1; WT and mutants) were transcribed from pGEMHE plasmids, using a mMessage mMachine® T7 ULTRA kit (Ambion, Huntingdon, Cambridgeshire, UK). Xenopus laevis oocytes were prepared, and RNA (100 ng for zebrafish P2X4, and 20 ng for rat P2X4) was injected into the oocytes. The oocytes were incubated at 18 °C in Barth’s solution, containing 88 mM NaCl, 1 mM KCl, 2.4 mM NaHCO3, 10 mM HEPES, 0.33 mM Ca(NO3)2, 0.41 mM CaCl2, and 0.82 mM MgSO4, pH 7.4, supplemented with 50 μg/ml gentamicin, and were used for recording after 2–3 days. Recording solutions contained 100 mM NaCl, 5 mM HEPES, 2 mM MgCl2, pH 7.3, and nucleoside triphosphates (ATP, CTP, GTP, and UTP), which were freshly prepared each day. Oocytes were held at −70 mV with a bath-clamp amplifier (OC-725C, Warner Co., USA), and macroscopic currents were recorded and analyzed using the pClamp 10 software (Molecular Devices, USA)[33][34]. We measured n = 4 for zebrafish P2X4 data and n = 7–9 for rat P2X4 data.
# rat P2X4 rH140A mutant = target: T2, rat P2X4 rH140A mutant (Rattus norvegicus, UniProt P51577, H140A); experiment: Two-Electrode Voltage Clamp recording, rat P2X4 H140A mutant in Xenopus oocytes; settings: for nucleotide-evoked currents / EC50: rH140A mutant; for nucleotide-evoked currents: 3 mM GTP, 3 mM UTP (Fig. S4); for fold reduced affinity as compared with rWT: rH140A mutant vs rWT, from EC50; for EC50: oocytes held at −70 mV, n = 7-8, read-out: EC50 (evoked current, dose-response)
# T2 construct: rat P2X4 (NP_113782.1; WT and mutants) were transcribed from pGEMHE plasmids; expressed in transfected cells; host or cells: Xenopus laevis oocytes injected with cRNA from pGEMHE
# T2 sequence (P51577 1-388 H140A): T1 sequence (P51577 1-388 T186S) with H140A, S186T
# Procedure: as §1
# (§3) Next we assessed the functional role of R143 in zfP2X4, as its side chain forms a hydrogen bond with the cytosine ring in the CTP-bound structure (Fig. 3A,B). This arginine residue is substituted with a similar basic residue, histidine (^rH140), in rat P2X4 (Fig. 3E).
# as §2
# rat P2X4 rH140R mutant = target: T3, rat P2X4 rH140R mutant (Rattus norvegicus, UniProt P51577, H140R); experiment: Two-Electrode Voltage Clamp recording, rat P2X4 H140R mutant in Xenopus oocytes; settings: for nucleotide-evoked currents / EC50: rH140R mutant; for nucleotide-evoked currents: 3 mM GTP, 3 mM UTP (Fig. S4); for fold reduced affinity as compared with rWT: rH140R mutant vs rWT, from EC50; for EC50: oocytes held at −70 mV, n = 9-10, read-out: EC50 (evoked current, dose-response)
# T3 construct: rat P2X4 (NP_113782.1; WT and mutants) were transcribed from pGEMHE plasmids; expressed in transfected cells; host or cells: Xenopus laevis oocytes injected with cRNA from pGEMHE
# T3 sequence (P51577 1-388 H140R): T1 sequence (P51577 1-388 T186S) with H140R, S186T
# Procedure: as §1, §3, §2
Compound,nucleotide-evoked currents (rat P2X4 rT186S mutant),nucleotide-evoked currents (rat P2X4 rH140A mutant),nucleotide-evoked currents (rat P2X4 rH140R mutant),EC50 (rat P2X4 rT186S mutant),fold reduced affinity as compared with rWT (rat P2X4 rH140A mutant),EC50 (rat P2X4 rH140A mutant),fold reduced affinity as compared with rWT (rat P2X4 rH140R mutant),EC50 (rat P2X4 rH140R mutant)
O=c1ccn([C@@H]2O[C@H](COP(=O)(O)OP(=O)(O)OP(=O)(O)O)[C@@H](O)[C@H]2O)c(=O)[nH]1 [UTP],no GTP- and UTP-evoked currents were detected,no GTP- and UTP-evoked currents were detected,no GTP- and UTP-evoked currents were detected,–,–,–,–,–
Nc1ccn([C@@H]2O[C@H](COP(=O)(O)OP(=O)(O)OP(=O)(O)O)[C@@H](O)[C@H]2O)c(=O)n1 [CTP],ATP- and CTP-evoked currents were detected,–,–,557 ± 120 µM,~14 fold,7990 µM,about 2 fold,1100 ± 140 µM
Nc1nc2c(ncn2[C@@H]2O[C@H](COP(=O)(O)OP(=O)(O)OP(=O)(O)O)[C@@H](O)[C@H]2O)c(=O)[nH]1 [GTP],no GTP- and UTP-evoked currents were detected,no GTP- and UTP-evoked currents were detected,no GTP- and UTP-evoked currents were detected,–,–,–,–,–
"Nc1ncnc2c1ncn2[C@@H]1O[C@H](COP(=O)(O)OP(=O)(O)OP(=O)(O)O)[C@@H](O)[C@H]1O [ATP, Adenosine 5-triphosphate]",ATP- and CTP-evoked currents were detected,–,–,29.9 ± 3.1 µM,about 2.5 fold,42.8 ± 6.3 µM,about 2 fold,39.4 ± 5 µM
